The source made the active and inactive calls. No cut-off for these calls is given here.
How the values were obtained:
[1] = molecular target: Neuronal acetylcholine receptor subunit alpha-7 (Rattus norvegicus, UniProt Q05941); experiment: Displacement of [3H]585539 from alpha7 nAChR in rat brain; type: tissue-based
[2] = molecular target: T1, Neuronal acetylcholine receptor subunit alpha-7 (Homo sapiens, UniProt P36544); experiment: Agonist activity at human recombinant alpha7 nAChR expressed in xenopus oocytes assessed as induction of Ca2+ current; type: functional, cell-based, Oocyte
T1 sequence (P36544 whole entry): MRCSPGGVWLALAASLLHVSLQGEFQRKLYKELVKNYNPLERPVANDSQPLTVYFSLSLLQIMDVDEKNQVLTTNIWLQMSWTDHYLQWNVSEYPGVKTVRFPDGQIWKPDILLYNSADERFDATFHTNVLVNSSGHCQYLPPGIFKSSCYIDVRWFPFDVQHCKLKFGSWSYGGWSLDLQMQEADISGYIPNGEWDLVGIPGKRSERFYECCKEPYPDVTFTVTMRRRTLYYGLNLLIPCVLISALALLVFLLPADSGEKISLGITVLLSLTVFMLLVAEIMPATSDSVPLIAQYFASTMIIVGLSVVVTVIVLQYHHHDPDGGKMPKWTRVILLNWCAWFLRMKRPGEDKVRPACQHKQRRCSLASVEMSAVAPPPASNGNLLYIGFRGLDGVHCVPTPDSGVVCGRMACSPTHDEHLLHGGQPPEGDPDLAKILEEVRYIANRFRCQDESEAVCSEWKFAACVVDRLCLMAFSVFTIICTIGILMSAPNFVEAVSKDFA

[3] = molecular target: Neuronal acetylcholine receptor; alpha4/beta2 (Rattus norvegicus) (UniProt P09483+P12390); experiment: Displacement of [3H]cytisine from rat brain alpha4beta2 nAChR up to 10 uM
[4] = molecular target: Neuronal acetylcholine receptor; alpha4/beta2 (Homo sapiens, UniProt P17787+P43681); experiment: Inhibition of alpha4beta2 nAChR; type: protein-complex assay
Neuronal acetylcholine receptor; alpha4/beta2, sequence (P17787 whole entry): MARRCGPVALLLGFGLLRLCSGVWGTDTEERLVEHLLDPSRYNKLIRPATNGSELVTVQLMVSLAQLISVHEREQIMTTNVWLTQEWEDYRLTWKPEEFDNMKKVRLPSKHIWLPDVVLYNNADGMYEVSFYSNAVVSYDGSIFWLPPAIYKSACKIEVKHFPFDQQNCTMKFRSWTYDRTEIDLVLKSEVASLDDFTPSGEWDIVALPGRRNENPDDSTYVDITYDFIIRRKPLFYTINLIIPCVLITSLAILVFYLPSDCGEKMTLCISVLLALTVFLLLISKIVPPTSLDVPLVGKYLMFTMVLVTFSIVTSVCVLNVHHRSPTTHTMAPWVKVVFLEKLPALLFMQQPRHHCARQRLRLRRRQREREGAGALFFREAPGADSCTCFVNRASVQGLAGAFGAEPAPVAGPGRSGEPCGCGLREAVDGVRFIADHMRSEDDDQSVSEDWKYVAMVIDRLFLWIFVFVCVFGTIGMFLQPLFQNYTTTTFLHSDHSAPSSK
Neuronal acetylcholine receptor; alpha4/beta2, sequence (P43681 whole entry): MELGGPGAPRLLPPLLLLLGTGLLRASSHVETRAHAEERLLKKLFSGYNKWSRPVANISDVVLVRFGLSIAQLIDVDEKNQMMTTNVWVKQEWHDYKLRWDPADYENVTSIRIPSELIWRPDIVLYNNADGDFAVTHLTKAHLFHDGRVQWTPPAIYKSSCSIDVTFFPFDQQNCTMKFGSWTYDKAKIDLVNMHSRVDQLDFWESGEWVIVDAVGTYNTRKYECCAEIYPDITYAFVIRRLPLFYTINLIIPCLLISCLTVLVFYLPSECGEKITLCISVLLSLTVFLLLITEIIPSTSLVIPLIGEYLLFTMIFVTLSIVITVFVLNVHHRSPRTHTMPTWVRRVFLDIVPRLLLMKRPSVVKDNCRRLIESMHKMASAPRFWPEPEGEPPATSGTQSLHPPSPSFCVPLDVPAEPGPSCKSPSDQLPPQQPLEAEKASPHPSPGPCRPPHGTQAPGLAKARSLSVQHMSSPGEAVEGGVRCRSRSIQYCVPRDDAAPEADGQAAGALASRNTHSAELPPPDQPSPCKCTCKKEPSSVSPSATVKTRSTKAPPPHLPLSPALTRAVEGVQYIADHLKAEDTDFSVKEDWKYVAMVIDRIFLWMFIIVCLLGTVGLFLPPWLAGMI

[5] = molecular target: Neuronal acetylcholine receptor; alpha3/beta4 (Homo sapiens, UniProt P30926+P32297); experiment: Inhibition of alpha3beta4 nAChR
Neuronal acetylcholine receptor; alpha3/beta4, sequence (P30926 whole entry): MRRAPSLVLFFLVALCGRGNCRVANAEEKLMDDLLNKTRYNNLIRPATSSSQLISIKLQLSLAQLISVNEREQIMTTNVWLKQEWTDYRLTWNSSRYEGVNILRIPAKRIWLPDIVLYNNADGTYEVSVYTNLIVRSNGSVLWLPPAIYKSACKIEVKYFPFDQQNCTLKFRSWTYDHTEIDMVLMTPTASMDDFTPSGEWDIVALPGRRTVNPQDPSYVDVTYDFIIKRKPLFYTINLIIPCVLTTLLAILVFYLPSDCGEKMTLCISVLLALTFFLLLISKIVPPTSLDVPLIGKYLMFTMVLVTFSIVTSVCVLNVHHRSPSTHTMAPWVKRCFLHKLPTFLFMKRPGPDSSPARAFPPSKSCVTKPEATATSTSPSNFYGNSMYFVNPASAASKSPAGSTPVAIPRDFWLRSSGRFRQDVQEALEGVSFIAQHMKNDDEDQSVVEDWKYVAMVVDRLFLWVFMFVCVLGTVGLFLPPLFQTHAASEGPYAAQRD
Neuronal acetylcholine receptor; alpha3/beta4, sequence (P32297 whole entry): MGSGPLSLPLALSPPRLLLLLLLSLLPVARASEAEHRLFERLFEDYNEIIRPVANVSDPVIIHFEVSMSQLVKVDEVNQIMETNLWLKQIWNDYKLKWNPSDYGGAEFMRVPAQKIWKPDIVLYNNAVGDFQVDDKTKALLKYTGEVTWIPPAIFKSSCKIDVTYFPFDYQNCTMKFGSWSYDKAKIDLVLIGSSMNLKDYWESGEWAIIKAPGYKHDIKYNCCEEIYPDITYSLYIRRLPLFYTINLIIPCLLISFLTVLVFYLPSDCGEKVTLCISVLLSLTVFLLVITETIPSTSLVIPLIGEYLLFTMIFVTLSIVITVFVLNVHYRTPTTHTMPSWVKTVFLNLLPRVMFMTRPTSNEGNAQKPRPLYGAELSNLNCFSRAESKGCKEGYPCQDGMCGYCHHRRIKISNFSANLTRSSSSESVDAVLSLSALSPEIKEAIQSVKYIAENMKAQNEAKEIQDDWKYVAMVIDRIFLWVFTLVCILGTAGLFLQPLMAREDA

[6] = molecular target: T1, Neuronal acetylcholine receptor subunit alpha-7; experiment: Agonist activity at human recombinant alpha7 nAChR expressed in xenopus oocytes assessed as induction of Ca2+ current relative to acetylcholine; type: functional, cell-based; settings: Oocyte

Neuronal acetylcholine receptor subunit alpha-7 (Rattus norvegicus, UniProt Q05941), sequence (Q05941 whole entry): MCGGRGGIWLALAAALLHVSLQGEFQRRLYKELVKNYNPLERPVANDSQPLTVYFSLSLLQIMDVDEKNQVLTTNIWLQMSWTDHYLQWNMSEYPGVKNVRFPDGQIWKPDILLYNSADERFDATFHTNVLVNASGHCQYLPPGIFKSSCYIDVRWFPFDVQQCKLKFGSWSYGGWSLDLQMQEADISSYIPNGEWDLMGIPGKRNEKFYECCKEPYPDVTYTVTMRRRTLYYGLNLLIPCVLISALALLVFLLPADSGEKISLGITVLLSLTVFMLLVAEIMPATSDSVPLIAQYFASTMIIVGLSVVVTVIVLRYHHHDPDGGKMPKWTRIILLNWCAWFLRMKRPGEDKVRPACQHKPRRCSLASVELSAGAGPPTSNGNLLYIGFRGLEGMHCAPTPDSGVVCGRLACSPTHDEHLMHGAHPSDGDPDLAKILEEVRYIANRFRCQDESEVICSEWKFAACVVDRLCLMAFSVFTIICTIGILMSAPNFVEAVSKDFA

With `CN1C[C@@H]2CN(c3ccc(-c4ccccc4)nn3)C[C@@H]2[C@@H]1COc1cccnc1` the Ki [1] was 0.32 µM and the EC50 [2] was greater than 100 µM.
`CN(Cc1ccc(Cl)nc1)C1CCN(c2ccc(-c3ccccc3)nn2)C1` (racemic) was tested, and the Ki [1] was greater than 0.01 µM and the Activity [3] was “inactive”.
`Clc1ccc(C2CC3CCC2N3)cn1` (stereo not drawn) showed an INH [4] of 0.1 nM.
With `CCN1C[C@@H]2CN(c3ccc(-c4ccccc4)nn3)C[C@@H]2C1` the Activity [3] was “inactive”.
For `CN(Cc1cccnc1)C1CCN(c2ccc(-c3ccccc3)nn2)C1` (racemic), the Ki [1] was greater than 10 µM and the Activity [3] was “inactive”.
With `CN(Cc1ccccn1)C1CCN(c2ccc(-c3ccccc3)nn2)C1` (racemic) the Ki [1] was greater than 10 µM and the Activity [3] was “inactive”.
Molecule `CN1C[C@@H]2CN(c3ccc(-c4ccccc4)nn3)C[C@@H]2C1` has a Ki [4] greater than 100 µM and a Ki [5] of 4.7 µM.
With `CN(Cc1ccncc1)C1CCN(c2ccc(-c3ccccc3)nn2)C1` (racemic) the Ki [1] was greater than 0.01 µM and the Activity [3] was “inactive”.
`CN(C)C1CCN(c2ccc(-c3ccccc3)nn2)C1` (racemic) was tested, and the Ki [1] was 0.478 µM and the Activity [3] was “inactive”.
Work on `CNC1CCN(c2ccc(-c3ccccc3)nn2)C1` (stereo not drawn) yielded a Ki [1] greater than 0.01 µM.
For `CN(Cc1ccccc1)C1CCN(c2ccc(-c3ccccc3)nn2)C1` (racemic), the Ki [1] was greater than 10 µM and the Activity [3] was “inactive”.
For `c1ccc(-c2ccc(N3C[C@H]4CN(Cc5ccccn5)C[C@H]4C3)nn2)cc1`, the Ki [1] was 0.533 µM and the Activity [3] was “inactive”.
For `c1ccc(-c2ccc(N3C[C@H]4CN(Cc5ccncc5)C[C@H]4C3)nn2)cc1`, the Ki [1] was 0.541 µM and the Activity [3] was “inactive”.
`CN1C[C@@H]2CN(c3ccc(-c4ccccc4)nn3)C[C@@H]2[C@H]1COc1cccnc1` gave a Ki [1] of 0.042 µM, an Activity [6] of 44% and an EC50 [2] of 12.9 µM.
For `CCN(C)C1CCN(c2ccc(-c3ccccc3)nn2)C1` (racemic), the Ki [1] was 0.746 µM and the Activity [3] was “inactive”.
For `c1ccc(-c2ccc(N3C[C@H]4CN(Cc5cccnc5)C[C@H]4C3)nn2)cc1`, the Ki [1] was 0.0036 µM, the Activity [6] was 84% and the EC50 [2] was 9.36 µM. For the same molecule, the Activity [3] was “inactive”.
With `c1ccc(CN2C[C@@H]3CN(c4ccc(-c5ccccc5)nn4)C[C@@H]3C2)cc1` the Ki [1] was 0.476 µM and the Activity [3] was “inactive”.
`Clc1ccc(CN2C[C@@H]3CN(c4ccc(-c5ccccc5)nn4)C[C@@H]3C2)cn1` showed a Ki [1] of 0.102 µM, an Activity [6] of 13% and an EC50 [2] of 11.8 µM. For the same molecule, the Activity [3] was “inactive”.

Source: ChEMBL document CHEMBL1153174, “Structure-activity relationships of N-substituted ligands for the alpha7 nicotinic acetylcholine receptor” (Bioorg Med Chem Lett, 2010)
